PubChem BioAssay AID192 (DTP/NCI, 2004)
“And” between values parts separate entries of the source, which are not always exact repeats. Identical values can stand only once. Toxic doses and inconclusive results are not listed.

System: BDF1 mice, B16 melanoma ip, median survival T/C
Assay: NCI In Vivo Anticancer Drug Screen. Data for tumor model B16 Melanoma (intraperitoneal) in B6D2F1 (BDF1) mice
Details: endpoint: median survival time, higher = longer survival
Summary of the method: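 Read-out: survival or tumor size, given as treated/control ratio. Controls received vehicle only; animals bore transplantable tumors.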

[1] = dose: 100.0 mg/kg/injection, schedule: Q04DX003 (ip), vehicle: Klucel (hydroxypropylcellulose) (HPC)
[2] = dose: 200.0 mg/kg/injection, schedule: Q04DX003 (ip), vehicle: Klucel (hydroxypropylcellulose) (HPC)
[3] = dose: 400.0 mg/kg/injection, schedule: Q04DX003 (ip), vehicle: Klucel (hydroxypropylcellulose) (HPC)
[4] = dose: 6.25 mg/kg/injection, schedule: Q01DX009 (ip), vehicle: Klucel (hydroxypropylcellulose) (HPC)
[5] = dose: 12.5 mg/kg/injection, schedule: Q01DX009 (ip), vehicle: Klucel (hydroxypropylcellulose) (HPC)
[6] = dose: 25.0 mg/kg/injection, schedule: Q01DX009 (ip), vehicle: Klucel (hydroxypropylcellulose) (HPC)
[7] = dose: 50.0 mg/kg/injection, schedule: Q01DX009 (ip), vehicle: Klucel (hydroxypropylcellulose) (HPC)
[8] = dose: 3.13 mg/kg/injection, schedule: Q01DX009 (ip), vehicle: saline with Tween-80
[9] = dose: 6.25 mg/kg/injection, schedule: Q01DX009 (ip), vehicle: saline with Tween-80
[10] = dose: 12.5 mg/kg/injection, schedule: Q01DX009 (ip), vehicle: saline
[11] = dose: 25.0 mg/kg/injection, schedule: Q01DX009 (ip), vehicle: saline
[12] = dose: 25.0 mg/kg/injection, schedule: Q01DX009 (ip), vehicle: saline with Tween-80
[13] = dose: 100.0 mg/kg/injection, schedule: Q01DX009 (ip), vehicle: saline with Tween-80
[14] = dose: 400.0 mg/kg/injection, schedule: Q01DX009 (ip), vehicle: saline with Tween-80
[15] = dose: 200.0 mg/kg/injection, schedule: Q01DX009 (ip), vehicle: saline with Tween-80
[16] = dose: 200.0 mg/kg/injection, schedule: Q01DX009 (ip), vehicle: Klucel (hydroxypropylcellulose) (HPC)
[17] = dose: 400.0 mg/kg/injection, schedule: Q01DX009 (ip), vehicle: Klucel (hydroxypropylcellulose) (HPC)
[18] = dose: 100.0 mg/kg/injection, schedule: Q01DX009 (ip), vehicle: Klucel (hydroxypropylcellulose) (HPC)
[19] = dose: 100.0 mg/kg/injection, schedule: Q01DX009 (ip), vehicle: saline
[20] = dose: 200.0 mg/kg/injection, schedule: Q01DX009 (ip), vehicle: saline
[21] = dose: 6.25 mg/kg/injection, schedule: Q01DX009 (ip), vehicle: water
[22] = dose: 12.5 mg/kg/injection, schedule: Q01DX009 (ip), vehicle: water

C1=Cc2ccccc2/C1=C/c1ccc(/C=C2\C=Cc3ccccc32)cc1
T/C [1]: 98 % of control
T/C [2]: 102 % of control
T/C [3]: 92 % of control

COc1cc2c(c(OC)c1OC)-c1ccc(OC)c(=O)cc1C(NC(=O)COc1ccccc1)CC2 (stereo unspecified)
T/C (dose: 1.25 mg/kg/injection, schedule: Q01DX009 (ip), vehicle: Klucel (hydroxypropylcellulose) (HPC)): 175 % of control
T/C (dose: 2.5 mg/kg/injection, schedule: Q01DX009 (ip), vehicle: Klucel (hydroxypropylcellulose) (HPC)): 188 % of control

Cc1ccc(C(C)(C)C[P+](C)(c2ccccc2)c2ccccc2)cc1
T/C [4]: 90 % of control
T/C [5]: 94 % of control
T/C [6]: 99 % of control
T/C [7]: 93 % of control

COC(=O)C1=C(C)NC(=O)NC1c1ccc(N(CCCl)CCCl)c(OC)c1 (stereo unspecified)
T/C (dose: 1.56 mg/kg/injection, schedule: Q01DX009 (ip), vehicle: Klucel (hydroxypropylcellulose) (HPC)): 154 % of control
T/C (dose: 3.12 mg/kg/injection, schedule: Q01DX009 (ip), vehicle: Klucel (hydroxypropylcellulose) (HPC)): 178 % of control
T/C [8]: 176 % of control
T/C [9]: 189 % of control

c1cc2n(n1)CCN2
T/C [10]: 102 % of control
T/C (dose: 18.75 mg/kg/injection, schedule: Q01DX009 (ip), vehicle: saline): 116 % of control
T/C [11]: 102 % of control
T/C (dose: 37.5 mg/kg/injection, schedule: Q01DX009 (ip), vehicle: saline): 100 % of control
T/C (dose: 50.0 mg/kg/injection, schedule: Q01DX009 (ip), vehicle: saline): 106 % of control
T/C (dose: 75.0 mg/kg/injection, schedule: Q01DX009 (ip), vehicle: saline): 93 % of control
T/C (dose: 150.0 mg/kg/injection, schedule: Q01DX009 (ip), vehicle: saline): 106 % of control
T/C (dose: 200.0 mg/kg/injection, schedule: Q04DX003 (ip), vehicle: saline with Tween-80): 108 % of control
T/C (dose: 400.0 mg/kg/injection, schedule: Q04DX003 (ip), vehicle: saline with Tween-80): 108 % of control

CC1(C)OC2OC(COC(=O)c3ccccc3)C(=O)C2O1 (stereo unspecified)
T/C [12]: 94 % of control
T/C (dose: 50.0 mg/kg/injection, schedule: Q01DX009 (ip), vehicle: saline with Tween-80): 97 % of control
T/C [13]: 93 % of control
T/C [14]: 88 % of control

NC(=S)N/N=C\c1nccc2c(C(F)(F)F)cccc12
T/C (dose: 1.5 mg/kg/injection, schedule: Q04DX003 (ip), vehicle: saline with Tween-80): 105 % of control
T/C (dose: 3.0 mg/kg/injection, schedule: Q04DX003 (ip), vehicle: saline with Tween-80): 110 % of control
T/C (dose: 6.0 mg/kg/injection, schedule: Q04DX003 (ip), vehicle: saline with Tween-80): 100 % of control
T/C (dose: 12.0 mg/kg/injection, schedule: Q04DX003 (ip), vehicle: saline with Tween-80): 102 % of control

CN(C(N)=O)C1CCCC1
T/C [13]: 114 % of control
T/C [15]: 100 % of control
T/C [14]: 93 % of control

OCC1OC(n2cnc3c(NO)ncnc32)C(O)C1O (stereo unspecified)
T/C [16]: 109 % of control
T/C [17]: 111 % of control

CCOc1cc(N)ccc1C
T/C [7]: 93 % of control
T/C [18]: 93 % of control
T/C [16]: 95 % of control

COc1cc2c3c(c1)/C(=N\NC(N)=O)CCN3CCC2
T/C [1]: 97 % of control
T/C [2]: 100 % of control
T/C [3]: 100 % of control

Cc1cc(CN)c(C)cc1CN
T/C (dose: 44.0 mg/kg/injection, schedule: Q01DX009 (ip), vehicle: saline): 91 % of control

COc1cccc2c1C(=O)c1c(O)c3c(c(O)c1C2=O)C[C@@](O)(C(C)=O)C[C@@H]3OC1CC(N(C)C)C(O)C(C)O1 (stereo partly specified)
T/C (dose: 0.63 mg/kg/injection, schedule: Q01DX001 (ip), vehicle: water): 100 % of control
T/C (dose: 1.25 mg/kg/injection, schedule: Q01DX001 (ip), vehicle: water): 110 % of control and 112 % of control
T/C (dose: 2.5 mg/kg/injection, schedule: Q01DX001 (ip), vehicle: water): 104 % of control
T/C (dose: 3.46 mg/kg/injection, schedule: Q04DX003 (ip), vehicle: water): 98 % of control and 122 % of control
T/C (dose: 5.76 mg/kg/injection, schedule: Q04DX003 (ip), vehicle: water): 106 % of control and 117 % of control
T/C (dose: 7.2 mg/kg/injection, schedule: Q01DX001 (ip), vehicle: water): 104 % of control and 116 % of control
T/C (dose: 9.6 mg/kg/injection, schedule: Q04DX003 (ip), vehicle: water): 102 % of control
T/C (dose: 12.0 mg/kg/injection, schedule: Q01DX001 (ip), vehicle: water): 106 % of control and 121 % of control

CC1CN(CCC#N)CC(C)O1 (stereo unspecified)
T/C [19]: 95 % of control
T/C [20]: 95 % of control

O=C(Nc1ccccc1F)c1ccc(Cl)c(Cl)c1
T/C [7]: 100 % of control
T/C [18]: 87 % of control
T/C [16]: 90 % of control
T/C [17]: 94 % of control

C[CH2][Pb]([CH2]C)([CH2]C)[O]C(=O)COc1ccccc1
T/C (dose: 1.5 mg/kg/injection, schedule: Q01DX009 (ip), vehicle: saline with Tween-80): 104 % of control
T/C (dose: 3.0 mg/kg/injection, schedule: Q01DX009 (ip), vehicle: saline with Tween-80): 107 % of control
T/C [9]: 108 % of control

CC(=O)Nc1cc(NC(C)=O)cc(N(CCCl)CCCl)c1
T/C [21]: 119 % of control
T/C [22]: 115 % of control

CCCCCCCCCCCCCCCCCCOCC(COP(=O)([O-])OCC[N+](C)(C)C)OC (stereo unspecified)
T/C (dose: 3.12 mg/kg/injection, schedule: Q01DX009 (ip), vehicle: saline): 91 % of control
T/C (dose: 6.25 mg/kg/injection, schedule: Q01DX009 (ip), vehicle: saline): 95 % of control
T/C [10]: 92 % of control
T/C [11]: 87 % of control

Cn1c[n+](C)cc1C(=O)[O-]
T/C [19]: 115 % of control
T/C [20]: 115 % of control
T/C (dose: 400.0 mg/kg/injection, schedule: Q01DX009 (ip), vehicle: saline): 109 % of control

CCN(CC)CCCC(C)NC(C)CCCN(CC)CC (stereo unspecified)
T/C [4]: 101 % of control
T/C [21]: 98 % of control
T/C [5]: 95 % of control
T/C [22]: 100 % of control

CCN=NNc1ccc(C)cc1
T/C [8]: 95 % of control
T/C [9]: 91 % of control
T/C (dose: 6.25 mg/kg/injection, schedule: Q04DX003 (ip), vehicle: saline with Tween-80): 94 % of control
T/C (dose: 12.5 mg/kg/injection, schedule: Q01DX009 (ip), vehicle: saline with Tween-80): 97 % of control
T/C (dose: 12.5 mg/kg/injection, schedule: Q04DX003 (ip), vehicle: saline with Tween-80): 101 % of control
T/C [12]: 91 % of control
T/C (dose: 25.0 mg/kg/injection, schedule: Q04DX003 (ip), vehicle: saline with Tween-80): 103 % of control

Nc1nc(N)nc(N)n1
T/C [18]: 100 % of control
T/C [13]: 102 % of control
T/C [16]: 100 % of control
T/C [15]: 102 % of control
T/C [17]: 105 % of control
T/C [14]: 87 % of control
T/C (dose: 800.0 mg/kg/injection, schedule: Q01DX009 (ip), vehicle: saline with Tween-80): 90 % of control

C=C1C(O)C2(O)OCC34C(CC5C(C)=CC(=O)C(O)C5(C)C23)OC(=O)C(OC(=O)C(C)(O)CC)C14 (stereo unspecified)
T/C (dose: 0.06 mg/kg/injection, schedule: Q01DX009 (ip), vehicle: saline + alcohol): 109 % of control
T/C (dose: 1.0 mg/kg/injection, schedule: Q01DX009 (ip), vehicle: saline + alcohol): 163 % of control

CC(=O)O[C@H]1CC[C@H]2[C@@H]3CC[C@H]4CC=C(C#N)C[C@]4(C)[C@H]3CC[C@]12C
T/C [5]: 86 % of control
T/C [6]: 94 % of control
T/C [7]: 88 % of control
